Measured values: US20070161592A1, “Method of treating fear” (priority 2005, published 2007)

Tests used:
NR1/NR2B = conditions: cited from earlier work
adult ACC neurons = test: LTP induced by theta-burst stimulation (TBS) in ACC slices; assay type: cell-based, mouse; conditions: 0.3 μM
Experimental: Coronal brain slices ([…]) from 6-8-week-old C57BL/6 mice, containing ACC or hippocampus, were prepared using standard methods (Wei et al., 2001). Slices were transferred to a submerged recovery chamber containing oxygenated (95% O2 and 5% CO2) artificial cerebrospinal fluid (ACSF) (in mM: 124 NaCl, 4.4 KCl, 2 CaCl2, 1 MgSO4, 25 NaHCO3, 1 NaH2PO4, 10 glucose) at room temperature for at least 1 h.
Experiments were performed in a recording chamber on the stage of an Axioskop 2FS microscope with infrared DIC optics for visualizing whole-cell patch clamp recordings. EPSCs were recorded from layer II-III neurons using an Axon 200B amplifier (Axon Instruments, CA) and stimulations were delivered using a bipolar tungsten stimulating electrode placed in layer V of the ACC. In hippocampal slices, EPSCs were evoked by stimulating the Schaffer collateral-commissural pathway. EPSCs were induced by repetitive stimulations at 0.02 Hz and neurons were voltage clamped at −70 mV. The recording pipettes (3-5 MΩ) were filled with solution containing (mM) 145 K-gluconate, 5 NaCl, 1 MgCl2, 0.2 EGTA, 10 HEPES, 2 Mg-ATP, and 0.1 Na3-GTP (adjusted to pH 7.2 with KOH). After obtaining stable EPSCs for 10 min, three kinds of LTP induction paradigms were used within 12 min after establishing the whole-cell configuration to prevent wash out effect on LTP induction (Tsvetkov et al., 2002). The first protocol involved paired presynaptic 80 pulses at 2 Hz with postsynaptic depolarization at +30 mV (referred to as pairing training). The second involved paired 3 presynaptic stimuli that caused 3 EPSPs (10 ms ahead) with 3 postsynaptic APs at 30 Hz, paired 15 times every 5 s (named as EPSPs-APs protocol). The third involved theta-burst stimulation (5 trains of burst with 4 pulses at 100 Hz, at 200 ms interval; repeated 4 times at intervals of 10 s; named as TBS). The NMDAR-mediated component of EPSCs was pharmacologically isolated in Mg^2+-free ACSF containing: CNQX (20 μM), glycine (1 μM) and picrotoxin (100 μM). The patch electrodes contained (in mM) 102 cesium gluconate, 5 TEA-chloride, 3.7 NaCl, 11 BAPTA, 0.2 EGTA, 20 HEPES, 2 MgATP, 0.3 NaGTP, and 5 QX-314 chloride (adjusted to pH 7.2 with CsOH). Neurons were voltage clamped at −60 mV and NMDARs-mediated EPSCs were evoked at 0.05 Hz. Picrotoxin (100 μM) was always present to block GABAA receptor-mediated inhibitory synaptic currents. The access resistance was 15-30 MΩ and was monitored throughout the experiment. Data were discarded if access resistance changed by more than 15% during an experiment. Results are expressed as means±SEM. Statistical comparisons were performed using the Student t-test. […]

NR2B-mediated NMDA EPSCs = NR2B-mediated NMDA EPSCs in neurons from siRNA electroporated ACC slices; assay type: cell-based, mouse; conditions: Ro25-6981-sensitive component, control slices 12.6±2.6%
Experimental: Experiments were performed in a recording chamber on the stage of an Axioskop 2FS microscope with infrared DIC optics for visualizing whole-cell patch clamp recordings. EPSCs were recorded from layer II-III neurons using an Axon 200B amplifier (Axon Instruments, CA) and stimulations were delivered using a bipolar tungsten stimulating electrode placed in layer V of the ACC. In hippocampal slices, EPSCs were evoked by stimulating the Schaffer collateral-commissural pathway. EPSCs were induced by repetitive stimulations at 0.02 Hz and neurons were voltage clamped at −70 mV. The recording pipettes (3-5 MΩ) were filled with solution containing (mM) 145 K-gluconate, 5 NaCl, 1 MgCl2, 0.2 EGTA, 10 HEPES, 2 Mg-ATP, and 0.1 Na3-GTP (adjusted to pH 7.2 with KOH). After obtaining stable EPSCs for 10 min, three kinds of LTP induction paradigms were used within 12 min after establishing the whole-cell configuration to prevent wash out effect on LTP induction (Tsvetkov et al., 2002). The first protocol involved paired presynaptic 80 pulses at 2 Hz with postsynaptic depolarization at +30 mV (referred to as pairing training). […] The access resistance was 15-30 MΩ and was monitored throughout the experiment. […] Results are expressed as means±SEM. […]
NMDAR-mediated EPSCs were also recorded in neurons from electroporated ACC slices.

Row | Compound | IC50 (NR1/NR2B) [nM] | LTP after TBS, % of baseline (adult ACC neurons) [%] | effect on LTP induced by TBS (adult ACC neurons; FIG. 4E) | NR2B-mediated NMDA EPSCs, % of total NMDAR-mediated current (NR2B-mediated NMDA EPSCs) [%]
1 | C[C@@H](CN1CCC(Cc2ccccc2)CC1)[C@@H](O)c1ccc(O)cc1 [Ro25-6981] | 9 | 105.5±8.3 | blocked | 
2 | NR2B siRNA: siRNA corresponding to NR2B, sense 5′-GGAUGAGUCCUCCAUGUUCtt-3′, antisense 5′-GAACAUGGAGGACUCAUCCtt-3′, Silencer Pre-designed siRNA ID #61879, Ambion (sense GGAUGAGUCCUCCAUGUUCTT; antisense GAACAUGGAGGACUCAUCCTT; chemistry not given here) |  |  |  | 7.3±0.7
